Reference: US10106523B2, “Amide compound” (ASTELLAS PHARMA INC., priority 2014, dated 2018)

Legend:
rat EP4 receptor = rat EP4 receptor (Rattus norvegicus, UniProt P43114); assay: Rat EP4 receptor antagonistic action by measurement of cAMP amount in CHO-K1 cells; type: cell-based; set-up: expressed in transfected cells; settings: PGE2 100 nmol/L, CHO-K1 cells stably expressing rat EP4, average of two experiments; read-out: IC50 value with respect to the cAMP production action by PGE2 in rat EP4 receptor expressing CHO-K1 cells
Chain of rat EP4 receptor (P43114 whole entry): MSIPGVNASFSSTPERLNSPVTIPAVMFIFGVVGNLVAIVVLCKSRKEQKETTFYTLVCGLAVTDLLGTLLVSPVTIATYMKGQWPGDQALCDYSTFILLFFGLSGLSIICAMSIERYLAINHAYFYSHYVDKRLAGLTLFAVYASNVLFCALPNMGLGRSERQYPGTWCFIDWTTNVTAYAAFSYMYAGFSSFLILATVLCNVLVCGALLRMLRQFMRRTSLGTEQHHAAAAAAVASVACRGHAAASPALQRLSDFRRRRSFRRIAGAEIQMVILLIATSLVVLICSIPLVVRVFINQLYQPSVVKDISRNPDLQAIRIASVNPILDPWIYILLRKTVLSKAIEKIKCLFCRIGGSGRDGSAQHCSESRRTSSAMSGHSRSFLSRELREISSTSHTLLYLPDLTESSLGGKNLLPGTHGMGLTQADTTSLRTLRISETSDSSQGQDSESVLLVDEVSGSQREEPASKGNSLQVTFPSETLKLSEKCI
Protocol: Test Example 4: Evaluation Test of Rat EP4 Receptor Antagonistic Action by Measurement of cAMP Amount
Construction of Vector Expressing Rat EP4 Receptor:
The construction was carried out in the same manner as in Test Example 1.
Construction of Cells Stably Expressing Rat EP4 Receptor:
The expression vector of a rat EP4 receptor was transfected into a CHO—K1 cell (ATCC No.: CCL-61). The transfection was carried out according to an appended instruction, using Lipofectoamine (registered trademark) 2000 reagent (Invitrogen Inc.). After the transfection, the cells were cultured in an α-MEM culture medium (product No. 12571063, Invitrogen Inc.) containing G418 (Nakalai Tesque Inc.) to acquire a drug-resistant clone.
Cell Culture and Treatment with Compound:
CHO—K1 cells stably expressing a rat EP4 were seeded in 96-well plates at 0.5×10^4 cells/100 μL and cultured overnight. […]
The cAMP amount in the cell lysate was measured using a cAMP HiRange kit. […] After incubation, the fluorescence intensity of the cryptate at 620 nm and the fluorescence intensity of the d2 at 665 nm were measured using ARVO1420. The cAMPs of 280, 70, 17.5, 4.38, 1.09, 0.27, and 0.068 nmol/L were added to each well to create a standard curve and the fluorescence intensity was measured as described above. […] An average value was calculated from two experiment results.

[1] = test system: renin activity in rat plasma; assay: Action on renin activity in rat plasma (PRA increase due to EP4 agonist ONO-AE1-437); type: in vivo; settings: SD rats, 0.3 mg/kg po; ONO-AE1-437 0.01 mg/kg sc
Protocol: Test Example 6: Evaluation Test of Action on Renin Activity in Rat Plasma
SD rats (male, 7-week old) under non-fasting conditions were used for the test. A test compound dissolved in a mixed solution of PEG 400:20% Tween 80:1 mol/L aqueous NaHCO3 solution=1:4:5 was orally administered (po) to the rat at a dose of 0.3 mg/kg (5 mL/kg). After 1 hour, an active metabolite (ONO-AE1-437) of an EP4 agonist ONO-4819 dissolved in physiological saline was subcutaneously administered to the back of the rat at a dose of 0.01 mg/kg (5 mL/kg). After 10 minutes, the rat was decapitated without anesthesia and about 2 mL of blood was collected in a tube containing 3 mg of EDTA.2Na. The blood sample was centrifuged (1000×g, 10 minutes, 4° C.) to separate the plasma. […] The Angiotensin I concentration in both samples was measured by an ELISA method, and a concentration obtained by subtracting a value of the blank reaction from the value of the sample incubated at 37° C. was taken as a renin activity in plasma (plasma renin activity (PRA)). By taking the PRA of the inhibitor rate of the group (n=5) not treated with ONO-AE1-437 as 100% and taking that of the group (n=4) treated with ONO-AE1-437 as 0%, the inhibitory rate of the test compound group (n=5) was calculated.

[2] = test system: 5/6 nephrectomy rats with chronic renal failure; assay: Effect on renal function of 5/6 nephrectomy (5/6 Nx) rats with chronic renal failure; type: in vivo, rat; settings: 5/6 Nx Wistar rats, 0.2 mg/kg po once per day for 6 weeks
Protocol: Test Example 8: Test for Investigation of Effect on Renal Function of 5/6 Nephrectomy (5/6 Nx) of Rats with Chronic Renal Failure
Wistar rats (male, 8-Week-old) were used for the test. Two-thirds of the left kidney was removed under pentobarbital anesthesia, and after 1 week, the entire right kidney was nephrectomized (5/6 Nx). After 2 weeks from 5/6 Nx, the protein concentrations in urine samples obtained by urine collection for 24 hours were measured using a Bio-Rad Protein assay kit, and the creatinine concentration in urine was measured using Determiner L CRE (Kyowa Medex Co., Ltd.)). The urinary protein-creatinine ratio (UPCR) was calculated, and a group (n=12) not treated with the test compound and a group (n=12) treated with the test compound were allocated without a bias in UPCR. The test compound suspended in a 0.5% MC solution was orally administered to the group treated with the test compound at a dose of 0.2 mg/kg once per day for 6 weeks (5 mL/kg). […] Urine was collected for 24 hours from the completion of the final administration, and using the calculated UPCR as an indicator, the improvement effect of the test compound on the nephropathy of the rat with chronic renal failure was investigated. The inhibitory rate of UPCR of the group treated with the test compound when the UPCR value of the group not treated with the test compound was taken as 100% was determined.

IC50 (rat EP4 receptor): 1.04 nM
SMILES: Cc1nn(Cc2cc3ccccc3cn2)c(C(=O)N[C@@H](C)c2ccc(C(=O)O)cc2)c1Br [Compound A, 4-[(1S)-1-({[4-bromo-1-(isoquinolin-3-ylmethyl)-3-methyl-1H-pyrazol-5-yl]carbonyl}amino)ethyl]benzoic acid]
Inhibition of the increase in PRA (plasma renin activity) due to the EP4 agonist ONO-AE1-437 [1]: 102%
Inhibitory rate of UPCR (urinary protein-creatinine ratio) [2]: 47%
